We go through 33 molecules from patent US20240327401A1, “FUSED RING COMPOUND, PHARMACEUTICAL COMPOSITION, AND APPLICATION THEREOF” (EVOPOINT BIOSCIENCES CO., LTD., priority 2021, published 2024).

The test system of assay [1] is ERK phosphorylation in DLD-1 cells. As to the kind of experiment: In-cell Western blot assay for ERK phosphorylation in DLD-1 cells. It is filed as cell-based. To be noted: Homo sapiens, p-ERK signal corrected using DMSO and BI-3406, four-parameter fit. The protocol:
Efficacy Example 1: In-cell Western Blot Assay for ERK Phosphorylation in DLD-1 Cells
DLD-1 cells (ATCC, CCL-221) were thawed and cultured in a culture medium containing RPMI1640 (Gibco, A10491-01), 10% fetal bovine serum (FBS) (Transgene, FS201-02) and 1% antibiotic P/S (Gibco, 15140-122) for 3 days until the cell viability was good. The cells were inoculated into a 384-well plate and incubated at 37° C. with 5% CO2 overnight. A test compound, a positive control compound, and a negative control were added. The compound was at concentrations of 10000 nM to 1.52 nM (3-fold dilution) and […], for a total of 10 concentrations. The mixture was well mixed and incubated at 37° C. with 5% CO2. The cells were washed twice with PBS (Solarbio, P1010), and then a blocking buffer was added. After 1 h of blocking at room temperature, a primary antibody mixture (phospho-p44/42 MAPK (T202/Y204) Rabbit mAb (CST, […]), GAPDH (D4C6R) Mouse mAb) (CST, 97166S) was added, followed by overnight incubation at 4° C. The cells were washed 3 times with PBST (PBS containing 0.05% Tween-20 (Solarbio, T8220)), and a secondary antibody mixture (goat anti rabbit 800CW (LI-COR, 926-32211), goat anti mouse 680RD (LI-COR, 926-68070)) was added, followed by incubation at room temperature in the dark. The 384-well plate was reversed and centrifuged at 1000 rpm for 1 min, and read on an Odyssey CLx fluorescence imaging system (LI-COR) to obtain fluorescence signal values, which were corrected using DMSO and BI-3406.
[formula] • H=Ave (DMSO) • L=Ave (BI-3406) • SD (H)=STDEV (DMSO) • SD (L)=STDEV (BI-3406)
The IC50 values of the compounds were calculated using a four-parameter fitting algorithm, specifically as follows:
[formula] • X: Log of cpd concentration • Y: Ave (relative pERK) • Top and Bottom: Plateaus in same units as Y • log IC50: same log units as X • HillSlope: Slope factor or Hill slope.

Assay [2] has as its target T1, SOS1/KRAS G12C protein binding (Homo sapiens, UniProt Q07889).
T1 construct: His-SOS1 (aa 564-1049) protein; purchased Pharmaron Beijing Co., Ltd. 20200717 (His-SOS1); 20200707 (KRAS G12C)
T1 sequence (Q07889 564-1049): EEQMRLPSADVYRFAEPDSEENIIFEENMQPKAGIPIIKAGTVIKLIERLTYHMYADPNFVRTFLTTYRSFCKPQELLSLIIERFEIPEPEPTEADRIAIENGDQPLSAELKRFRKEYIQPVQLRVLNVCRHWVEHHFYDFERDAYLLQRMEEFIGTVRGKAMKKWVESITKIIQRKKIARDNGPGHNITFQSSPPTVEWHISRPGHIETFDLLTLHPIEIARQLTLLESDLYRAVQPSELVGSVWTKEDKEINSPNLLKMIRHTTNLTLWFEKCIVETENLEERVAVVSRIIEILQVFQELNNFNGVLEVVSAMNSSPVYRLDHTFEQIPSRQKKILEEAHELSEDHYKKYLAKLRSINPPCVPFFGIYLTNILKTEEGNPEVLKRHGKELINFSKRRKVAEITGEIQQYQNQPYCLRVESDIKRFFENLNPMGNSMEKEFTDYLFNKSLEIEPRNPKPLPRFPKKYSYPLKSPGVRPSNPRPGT
Nature of the assay: Inhibition of SOS1/KRAS G12C protein binding (665 nm/615 nm ratio). To be noted: 15 nM KRAS G12C (aa 1-169), 2.5 nM His-SOS1 (aa 564-1049); nonlinear regression. The protocol:
Efficacy Example 2: Evaluation of Inhibition of SOS1/KRAS G12C Protein Binding
A test compound was dissolved in 100% DMSO to give a solution at a concentration of 10 mM. 10 μL of the solution was taken and 3-fold diluted with 100% DMSO to prepare test compound solutions with concentrations of 10000 nM to […], for a total of 11 concentrations. The compound solutions at different concentrations were then transferred to a 384-well plate at 0.1 μL/well using a sonic droplet device Echo (Labcyte), and 2 replicate wells were set for each concentration.
A 15 nM KRAS G12C (aa 1-169) protein (Pharmaron Beijing Co., Ltd., 20200707) was transferred to the 384-well reaction plate at 5 μL/well using the sonic droplet device Echo (Labcyte), and then the reaction plate was centrifuged in a centrifuge (Eppendorf, 5810R) at 1000 rpm/min for 1 min.
A 2.5 nM His-SOS1 (aa 564-1049) protein (Pharmaron Beijing Co., Ltd., 20200717) was transferred to the 384-well reaction plate at 5 μL/well using the sonic droplet device Echo (Labcyte), and then the reaction plate was centrifuged in a centrifuge (Eppendorf, 5810R) at 1000 rpm/min for 1 min and incubated at 25° C. for 15 min.
A mixed solution of Antibody 1 (MAb Anti-6his-Tb cryptate Gold, Cisbio, 61HI2TLA) and Antibody 2 (MAb Anti-GST-XL665, Cisbio, 61GSTXLA) was transferred to the 384-well reaction plate at 10 μL/well using the sonic droplet device Echo (Labcyte), and then the reaction plate was centrifuged in a centrifuge (Eppendorf, 5810R) at 1000 rpm/min for 1 min and incubated at 25° C. for 120 min.
The 665 nm/615 nm optical density ratio was read using an Envision multifunctional microplate reader (Perkin Elmer, Envision 2104).
Analysis of Original Data:
The IC50 values of the compounds were fitted by a nonlinear regression equation of Graphpad Prism 8. The results are shown in Table 2: • Negative control: DMSO
The IC50 (half maximal inhibitory concentration) values of the compounds were calculated using the following non-linear fitting equation:
[formula] • X: Log of cpd concentration • Y: 665 nm/615 nm ratio

As to `Cc1nc(N[C@H](C)c2cccc(C(F)F)c2F)c2cn(C3(C(F)F)CC3)c(=O)c(O[C@H]3CCOC3)c2n1` [SZ-022351], the results for the half-maximal inhibitory concentration (IC50) in assay [1] and in assay [2] were 555 nM and 21.4 nM, respectively. The matching figures for `COc1c(=O)n(C2(C(F)F)CC2)cc2c(N[C@H](C)c3cccc4c3OCC4(F)F)nc(C)nc12` [SZ-022330]: 117 nM and 5.02 nM.

As to `COc1c(=O)n(C2(C(F)F)CC2)cc2c(N[C@H](C)c3cccc4c(F)coc34)nc(C)nc12` [SZ-022330B], the IC50 in assay [1] amounted to 400 nM; in assay [2] it was 9.99 nM. Regarding `COc1c(=O)n(C2CC(F)(F)C2)cc2c(N[C@H](C)c3cccc(C(F)F)c3F)nc(C)nc12` [SZ-022336], the half-maximal inhibitory concentration (IC50) in assay [2] amounted to 36.5 nM. The same measure, in the same setting: in the case of `COc1c(=O)n(C2CCOCC2)cc2c(N[C@H](C)c3cccc(C(F)F)c3F)nc(C)nc12` [SZ-022326] it was 10.5 nM. With `Cc1nc(N[C@H](C)c2cccc(C(F)F)c2F)c2cn(C3(C(F)F)CC3)c(=O)c(N(C)C)c2n1` [SZ-022251], the half-inhibitory concentration (IC50) in assay [1] turned out to be 146 nM.

Consider `CCOc1c(=O)n(C2(C(F)F)CC2)cc2c(N[C@H](C)c3cccc(C(F)F)c3C)nc(C)nc12` [SZ-022337], for which the half-maximal inhibitory concentration (IC50) came to 174 nM in assay [1] and 4.14 nM in assay [2]. The matching figures for `COc1c(=O)n(C2(C(F)F)CC2)cc2c(N[C@H](C)c3cccc(C(F)(F)C(C)(C)O)c3F)nc(C)nc12` [SZ-022317]: 371 nM and 4.54 nM. For the molecule `COc1c(=O)n(C2(C)CCOC2)cc2c(N[C@H](C)c3cccc(C(F)F)c3F)nc(C)nc12` (stereo partly shown) [SZ-022328], the IC50 was found to be 309 nM in assay [1] and 9.7 nM in assay [2]. Take `[2H]C([2H])([2H])Oc1c(=O)n(C2(C(F)(F)F)CC2)cc2c(N[C@H](C)c3cccc(C#N)c3C)nc(C)nc12` [SZ-022384]: the IC50 in assay [1] is 884 nM; in assay [2], 15.4 nM. The matching figures for `Cc1nc(N[C@H](C)c2cccc(C(F)F)c2F)c2cn(C3(C(F)F)CC3)c(=O)c(OCC(F)(F)F)c2n1` [SZ-022312]: 601 nM and 17.9 nM. The matching figures for `COc1c(=O)n(C2(C(F)F)CC2)cc2c(N[C@H](C)c3cc(N)cc(C(F)(F)F)c3)nc(C)nc12` [SZ-022327]: 153 nM and 5.04 nM.

For `Cc1nc(N[C@H](C)c2cccc(C(F)F)c2F)c2cn(C3(C(F)F)CC3)c(=O)c(OC(C)C)c2n1` [SZ-022313], the IC50 amounted to 1270 nM in assay [1] and 44 nM in assay [2].

As for `CCOc1c(=O)n(C2(CF)CC2)cc2c(N[C@H](C)c3cccc(C(F)F)c3F)nc(C)nc12` [SZ-022363], the half-inhibitory concentration (IC50) in assay [1] amounted to 171 nM; in assay [2], 7.36 nM. Regarding `COc1c(=O)n(C2(CF)CC2)cc2c(N[C@H](C)c3cccc(C(C)(F)F)c3F)nc(C)nc12` [SZ-022357], the figures for the IC50 in assay [1] and in assay [2] were 165 nM and 3.68 nM, respectively. The matching figures for `COc1c(=O)n(C2(C(F)(F)F)CC2)cc2c(N[C@H](C)c3cccc(C(C)(F)F)c3F)nc(C)nc12` [SZ-022358]: 222 nM and 4.79 nM. Take `COc1c(=O)n(C2(C(F)F)CC2)cc2c(N[C@H](C)c3cccc(C(F)F)c3F)nc(C)nc12` [SZ-022244]: the results for the half-inhibitory concentration (IC50) in assay [1] and in assay [2] were 265 nM and 17.8 nM, respectively. For the molecule `Cc1nc(N[C@H](C)c2cccc(C(F)F)c2F)c2cn(C3(C(F)F)CC3)c(=O)c(OCC(F)F)c2n1` [SZ-022368], the IC50 in assay [1] turned out to be 249 nM; in assay [2], 23.5 nM. Take `[2H]C([2H])([2H])Oc1c(=O)n(C2(C(F)F)CC2)cc2c(N[C@H](C)c3cccc(C(F)F)c3F)nc(C)nc12` [SZ-022295]: the IC50 in assay [1] came to 256 nM; in assay [2], 8.15 nM. The matching figures for `COCC1(n2cc3c(N[C@H](C)c4cccc(C(F)F)c4F)nc(C)nc3c(OC)c2=O)CC1` [SZ-022346]: 1020 nM and 30 nM. With `COc1c(=O)n(C2(C(F)F)CC2)cc2c(N[C@H](C)c3ccc(-c4ccccc4CN(C)C)s3)nc(C)nc12` [SZ-022373], the figures for the half-maximal inhibitory concentration (IC50) in assay [1] and in assay [2] were 42 nM and 1.4 nM, respectively. On to `CCOc1c(=O)n(C2(CF)CC2)cc2c(N[C@H](C)c3cccc(C(F)(F)F)c3C)nc(C)nc12` [SZ-022342], for which the concentration for half-maximal inhibition (IC50) is 57 nM in assay [1] and 7.15 nM in assay [2]. Consider `COc1c(=O)n(C2(C)CC2)cc2c(N[C@H](C)c3cccc(C(F)F)c3F)nc(C)nc12` [SZ-022300], for which the IC50 in assay [1] was 412 nM; in assay [2], 12.1 nM. The matching figures for `COc1c(=O)n(C2(C(F)F)CC2)cc2c(N[C@H](C)c3cccc(C(C)(F)F)c3)nc(C)nc12` [SZ-022350]: 211 nM and 16.7 nM.

Regarding `CCOc1c(=O)n(C2(C)CC2)cc2c(N[C@H](C)c3cccc(C(F)F)c3F)nc(C)nc12` [SZ-022364], the IC50 in assay [1] was found to be 303 nM; in assay [2], 22.2 nM.

Regarding `COc1c(=O)n(C2(C(F)F)CC2)cc2c(N[C@H](C)c3cccc(C(F)F)c3C)nc(C)nc12` [SZ-022302], the 50% inhibitory concentration (IC50) in assay [1] was determined as 104 nM; in assay [2], 3.79 nM. Take `Cc1nc(N[C@H](C)c2cccc(C(F)(F)F)c2C)c2cn(C3(C)CC3)c(=O)c(S(C)(=O)=O)c2n1` [SZ-022371]: the values for the IC50 in assay [1] and in assay [2] were 274 nM and 21.8 nM, respectively. As to `COc1c(=O)n(C2(CO)CC2)cc2c(N[C@H](C)c3cccc(C(F)F)c3F)nc(C)nc12` [SZ-022347], the IC50 in assay [2] was 60.1 nM. As for `CCOc1c(=O)n(C2(C(F)F)CC2)cc2c(N[C@H](C)c3cccc(C(F)(F)F)c3C)nc(C)nc12` [SZ-022339], the values for the IC50 in assay [1] and in assay [2] were 186 nM and 7.25 nM, respectively. As for `COc1c(=O)n(C2CCN(C(=O)C3CC3)CC2)cc2c(N[C@H](C)c3cccc(C(F)F)c3F)nc(C)nc12` [SZ-022335], the IC50 in assay [2] is 27.9 nM. Turning to `CCC1(n2cc3c(N[C@H](C)c4cccc(C(F)F)c4F)nc(C)nc3c(OC)c2=O)CC1` [SZ-022343], in assay [2], the IC50 amounted to 26.7 nM. As to `CCS(=O)(=O)c1c(=O)n(C2(C(F)F)CC2)cc2c(N[C@H](C)c3cccc(C(F)F)c3F)nc(C)nc12` [SZ-022372], in assay [2], the concentration for half-maximal inhibition (IC50) turned out to be 36.6 nM. On to `COc1c(=O)n(C2(C#N)CC2)cc2c(N[C@H](C)c3cccc(C(F)F)c3F)nc(C)nc12` [SZ-022344], for which the half-inhibitory concentration (IC50) in assay [2] came to 23.7 nM.
